Calls of active or inactive are those of the source. The calls are words filed in the database; no cut-off is given here. Where a SMILES comes first, the peptide text is derived from it. Bridges are numbered along the chain shown (N, C = ends). Roman numbers before positions name the chains, in order. [ ]: non-standard residue; d: D form. 1Nal = N[C@@H](Cc1cccc2ccccc12)C(=O)O; Agb = N=C(N)NCC[C@H](N)C(=O)O

Assay [1] addresses T1, Relaxin-3 receptor 1 (Homo sapiens, UniProt Q9NSD7).
T1 sequence (Q9NSD7 whole entry): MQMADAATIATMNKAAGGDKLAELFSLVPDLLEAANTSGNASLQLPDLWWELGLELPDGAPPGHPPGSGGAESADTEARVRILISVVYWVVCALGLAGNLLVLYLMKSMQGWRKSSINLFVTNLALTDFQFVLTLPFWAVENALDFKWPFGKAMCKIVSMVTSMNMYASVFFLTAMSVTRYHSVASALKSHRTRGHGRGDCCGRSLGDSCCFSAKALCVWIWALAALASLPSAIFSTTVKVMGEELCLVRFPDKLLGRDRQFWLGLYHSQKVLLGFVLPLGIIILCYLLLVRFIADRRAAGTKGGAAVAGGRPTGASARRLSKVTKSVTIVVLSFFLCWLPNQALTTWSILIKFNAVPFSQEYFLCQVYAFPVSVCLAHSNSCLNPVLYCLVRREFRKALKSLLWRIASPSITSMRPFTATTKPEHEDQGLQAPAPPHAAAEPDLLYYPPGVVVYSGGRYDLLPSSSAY
The experiment in a line: Binding affinity to SmBit-tagged RXFP3 (unknown origin) expressed in HEK cells assessed as inhibition constant incubated for 1 hr by NanoBiT assay. It is filed as cell-based.

Assay [2] deals with T2, Relaxin-3 receptor 1 (Homo sapiens) (UniProt Q9NSD7).
T2 sequence (whole entry): T1 sequence (Q9NSD7 whole entry)
Put plainly: (§1) Agonist activity at RXFP3 (unknown origin) expressed in CHO cells co-transfected with pCRE-galactosidase reporter plasmid assessed as inhibition of forskolin-induced cAMP accumulation incubated for 6 hrs by reporter gene assay. It is filed as functional, cell-based. For orientation: Changes in cAMP serve as a functional read-out for many G protein-coupled receptors.

Assay [3] deals with T3, Relaxin-3 receptor 2 (Homo sapiens, UniProt Q8TDU9). Put plainly: Binding affinity to LgBiT-tagged RXFP4 (unknown origin) expressed in HEK cells assessed as inhibition constant incubated for 1 hr by NanoBiT assay. Type of assay: cell-based.
Assay [4] concerns the target T3, Relaxin-3 receptor 2. Put plainly: Agonist activity at RXFP4 (unknown origin) expressed in CHO cells co-transfected with pCRE-galactosidase reporter plasmid assessed as inhibition of forskolin-induced cAMP accumulation incubated for 6 hrs by reporter gene assay. It is filed as functional, cell-based.
A short description of assay [5]: Selectivity index, ratio of Ki for binding affinity to SmBit-tagged RXFP3 (unknown origin) expressed in HEK cells assessed as inhibition constant to Ki for binding affinity to LgBiT-tagged RXFP4 (unknown origin) expressed in HEK cells assessed as inhibition constant. Type of assay: cell-based.
For assay [6], the target named is T3, Relaxin-3 receptor 2. Put plainly: Agonist activity at RXFP4 in HEK293T cells assessed as beta-arrestin2 recruitment pretreated with coelenterazine for 10 mins followed by compound addition by BRET assay. It is filed as functional, cell-based.
Assay [7] deals with T1, Relaxin-3 receptor 1. Described as §1. It is filed as functional, cell-based.
The target in assay [8] is T3, Relaxin-3 receptor 2. The experiment in a line: Antagonist activity at RXFP4 in HEK293T cells assessed as beta-arrestin2 recruitment pretreated with coelenterazine for 10 mins followed by compound addition by BRET assay. Type of assay: functional, cell-based. (In general: Recruitment of arrestin is a read-out of receptor activation apart from second messengers.)

T3 sequence (Q8TDU9 whole entry): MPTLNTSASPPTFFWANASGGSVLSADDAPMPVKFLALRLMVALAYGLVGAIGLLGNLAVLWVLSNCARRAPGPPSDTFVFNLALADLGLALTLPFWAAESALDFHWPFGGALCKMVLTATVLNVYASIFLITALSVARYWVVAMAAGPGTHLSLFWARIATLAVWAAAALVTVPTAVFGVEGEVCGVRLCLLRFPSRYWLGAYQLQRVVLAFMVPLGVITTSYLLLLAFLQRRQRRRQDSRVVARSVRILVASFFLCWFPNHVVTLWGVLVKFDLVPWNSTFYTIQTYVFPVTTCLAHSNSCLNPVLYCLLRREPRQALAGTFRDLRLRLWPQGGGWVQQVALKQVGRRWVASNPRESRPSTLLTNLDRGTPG

Take `CC[C@H](C)[C@@H]1NC(=O)[C@H](Cc2ccc(O)cc2)NC(=O)[C@H]([C@@H](C)CC)NC(=O)[C@H](C(C)C)NC(=O)[C@H]([C@@H](C)O)NC(=O)[C@H](CCCNC(=N)N)NC(=O)[C@H]([C@@H](C)CC)NC(=O)[C@H](Cc2ccc(O)cc2)NC(=O)[C@H](CCC(=O)O)NC(=O)[C@H](CC(C)C)NC(=O)CNC(=O)[C@@H](N)CSSC[C@H](N)C(=O)N[C@@H]([C@@H](C)O)C(=O)N[C@@H](CC(=O)O)C(=O)NCC(=O)N[C@@H](CS)C(=O)N[C@H](CO)C(=O)N[C@@H](CCSC)C(=O)N[C@@H](CCCCN)C(=O)N[C@@H](CC(=O)O)C(=O)N[C@@H](CC(C)C)C(=O)N[C@@H](CO)C(=O)N[C@@H](C)C(=O)N[C@@H](CC(C)C)C(=O)N[C@H](C(=O)O)CSSC[C@@H](C(=O)N[C@@H](C)C(=O)N[C@@H](CO)C(=O)N[C@@H](CO)C(=O)N[C@@H](CCCNC(=N)N)C(=O)N[C@@H](Cc2c[nH]c3ccccc23)C(=O)O)NC1=O`: the Ki was determined as 426 nM at Relaxin-3 receptor 1 [1] (read-out: Ki) and 8.71 nM on Relaxin-3 receptor 2 [3]. Further, the result in assay [2] was inactive. The EC50 on Relaxin-3 receptor 2 [4] (read-out: EC50) came to 8.32 nM. In addition, the Ratio Ki in assay [5] was 49.

In the case of `CC[C@H](C)[C@@H]1NC(=O)[C@H](Cc2ccc(O)cc2)NC(=O)[C@H]([C@@H](C)CC)NC(=O)[C@H](C(C)C)NC(=O)[C@H]([C@@H](C)O)NC(=O)[C@H](CCCNC(=N)N)NC(=O)[C@H]([C@@H](C)CC)NC(=O)[C@H](Cc2ccc(O)cc2)NC(=O)[C@H](CCC(=O)O)NC(=O)[C@H](CC(C)C)NC(=O)CNC(=O)[C@@H](NC(=O)[C@H](CC(C)C)NC(=O)[C@H](CCCNC(=N)N)NC(=O)[C@@H](NC(=O)[C@H](CO)NC(=O)[C@H](CCC(=O)O)NC(=O)[C@@H](N)CCCCN)C(C)C)CSSC[C@H](N)C(=O)N[C@@H]([C@@H](C)O)C(=O)N[C@@H](CC(=O)O)C(=O)NCC(=O)N[C@@H](CS)C(=O)N[C@H](CO)C(=O)N[C@@H](CCSC)C(=O)N[C@@H](CCCCN)C(=O)N[C@@H](CC(=O)O)C(=O)N[C@@H](CC(C)C)C(=O)N[C@@H](CO)C(=O)N[C@@H](C)C(=O)N[C@@H](CC(C)C)C(=O)N[C@H](C(=O)O)CSSC[C@@H](C(=O)N[C@@H](C)C(=O)N[C@@H](CO)C(=O)N[C@@H](CO)C(=O)N[C@@H](CCCNC(=N)N)C(=O)N[C@@H](Cc2c[nH]c3ccccc23)C(=O)O)NC1=O`, the results for the Ki on Relaxin-3 receptor 1 [1] (read-out: Ki), on Relaxin-3 receptor 1 [1] (read-out: pKi (converted)) and at Relaxin-3 receptor 2 [3] were 195 nM, 295 nM and 7.76 nM, respectively. The outcome in assay [2] was inactive. In addition, the EC50 on Relaxin-3 receptor 2 [4] (read-out: EC50) came to 7.94 nM; at Relaxin-3 receptor 2 [6] it was 61.7 nM. Moreover, in assay [5], the Ratio Ki was 38.

On to `CC[C@H](C)[C@@H]1NC(=O)[C@H](Cc2ccc(O)cc2)NC(=O)[C@H]([C@@H](C)CC)NC(=O)[C@H](C(C)C)NC(=O)[C@H]([C@@H](C)O)NC(=O)[C@H](CCCNC(=N)N)NC(=O)[C@H]([C@@H](C)CC)NC(=O)[C@H](Cc2ccc(O)cc2)NC(=O)[C@H](CCC(=O)O)NC(=O)[C@H](CC(C)C)NC(=O)CNC(=O)[C@@H](N)CSSC[C@H](N)C(=O)N[C@@H]([C@@H](C)O)C(=O)N[C@@H](CC(=O)O)C(=O)NCC(=O)N[C@@H](C)C(=O)N[C@@H](CO)C(=O)N[C@@H](CCSC)C(=O)N[C@@H](CCCCN)C(=O)N[C@@H](CC(=O)O)C(=O)N[C@@H](CC(C)C)C(=O)N[C@@H](CO)C(=O)N[C@@H](C)C(=O)N[C@@H](CC(C)C)C(=O)N[C@H](C(=O)O)CSSC[C@@H](C(=O)NCC(=O)NCC(=O)N[C@@H](CO)C(=O)N[C@@H](CCNC(=N)N)C(=O)N[C@@H](Cc2cccc3ccccc23)C(=O)O)NC1=O` (I: H-CGLEYIRTVIYICGGS[Agb][1Nal]-OH / II: H-CTDGASMKDLSALC-OH; disulfide I:1-II:1, I:13-II:14), for which the figures for the Ki on Relaxin-3 receptor 1 [1] (read-out: Ki) and on Relaxin-3 receptor 2 [3] were 2190 nM and 1.32 nM, respectively. For the same compound, the EC50 was > 10000 nM at Relaxin-3 receptor 1 [7] (cho, read-out: EC50); > 10000 nM at Relaxin-3 receptor 1 [7] (read-out: pEC50 (converted)); 9.12 nM at Relaxin-3 receptor 2 [4] (read-out: pEC50 (converted)); 40.7 nM at Relaxin-3 receptor 2 [6]. The Ratio Ki in assay [5] is 1660. Further, the outcome at Relaxin-3 receptor 2 [8] was inactive.

These data come from ChEMBL document CHEMBL6078655, “Engineering of Novel Analogues That Are More Receptor-Selective and Potent than the Native Hormone, Insulin-like Peptide 5 (INSL5)” (J Med Chem, 2024).
